Test results reported in PubChem BioAssay (NCI).
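In this assay, cells in 96-well plates receive the compound at five concentrations for 48 hours. Endpoints are linearly interpolated between the surrounding concentrations. GI50 = concentration required for 50% inhibition of growth. TGI: total growth inhibition.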

Tests used:
Experiment in all cases: NCI-60 cell line screen, 48 h
CCRF-CEM leukemia = test system: CCRF-CEM leukemia
MALME-3M melanoma = test system: MALME-3M melanoma
MOLT-4 leukemia = test system: MOLT-4 leukemia
OVCAR-4 ovarian = test system: OVCAR-4 ovarian
OVCAR-5 ovarian = test system: OVCAR-5 ovarian
SK-MEL-28 melanoma = test system: SK-MEL-28 melanoma
SK-MEL-5 melanoma = test system: SK-MEL-5 melanoma
SR leukemia = test system: SR leukemia
SK-OV-3 ovarian = test system: SK-OV-3 ovarian
BT-549 breast = test system: BT-549 breast

Row | SMILES | TGI (CCRF-CEM leukemia) | TGI (MALME-3M melanoma) | TGI (MOLT-4 leukemia) | TGI (OVCAR-4 ovarian) | TGI (OVCAR-5 ovarian) | TGI (SK-MEL-28 melanoma) | TGI (SK-MEL-5 melanoma) | TGI (SR leukemia) | TGI (SK-OV-3 ovarian) | GI50 (BT-549 breast) | TGI (BT-549 breast) | GI50 (CCRF-CEM leukemia) | GI50 (MALME-3M melanoma) | GI50 (MOLT-4 leukemia) | GI50 (OVCAR-4 ovarian) | GI50 (OVCAR-5 ovarian) | GI50 (SK-MEL-28 melanoma) | GI50 (SK-MEL-5 melanoma) | GI50 (SK-OV-3 ovarian) | GI50 (SR leukemia)
1 | COC1CC(OS(=O)(=O)c2ccc([N+](=O)[O-])cc2)C(OC(=O)c2ccccc2)C(C)O1 (stereo not given) | > 100 µM | > 100 µM | > 100 µM | > 100 µM | > 100 µM | > 100 µM | > 100 µM | > 100 µM |  |  |  |  |  |  |  |  |  |  |  | 
2 | CC(C)C1CC[C@@H](C)C[C@@]1(O)CC(N)=O (stereo not given in full) |  | > 100 µM | > 100 µM | > 100 µM | > 100 µM | > 100 µM | > 100 µM | > 100 µM | > 100 µM |  |  |  |  |  |  |  |  |  |  | 
3 | COc1ccc2c(c1)c(=O)oc1cc(OC/C(C)=N\O)ccc12 | > 100 µM | > 100 µM | > 100 µM | > 100 µM | > 100 µM | > 100 µM | > 100 µM |  | > 100 µM | 49.2 µM | > 100 µM | > 100 µM | > 100 µM | > 100 µM | > 100 µM | > 100 µM | > 100 µM | > 100 µM | 99.7 µM | 
4 | CCOC(=O)N1CCN(C=S)CC1 | > 100 µM | > 100 µM | > 100 µM |  | > 100 µM | > 100 µM | > 100 µM | > 100 µM | > 100 µM |  |  |  |  |  |  |  |  |  |  | 
5 | Cn1cc(C(=O)NCCC(=N)N)cc1NC(=O)C1=[N+](C)C=C(NC(=O)c2cccc(C(=O)NC3=CC(C(=O)Nc4cc(C(=O)NCCC(=N)N)cn4C)=[N+](C)C3)c2)C1 | > 100 µM | > 100 µM | > 100 µM | > 100 µM |  | > 100 µM | > 100 µM | > 100 µM | > 100 µM |  |  |  |  |  |  |  |  |  |  | 
6 | Nc1ccnc(=O)[nH]1 | > 100 µM | > 100 µM |  | > 100 µM | > 100 µM | > 100 µM | > 100 µM |  | > 100 µM |  |  |  |  |  |  |  |  |  |  | 
7 | O=C1Nc2ccccc2/C1=C/C(=O)c1coc2c1C(=O)c1ccccc1C2=O | > 100 µM | > 100 µM | > 100 µM | > 100 µM | > 100 µM | > 100 µM | > 100 µM | > 100 µM | > 100 µM |  |  | > 100 µM | > 100 µM | 62.3 µM | > 100 µM | > 100 µM | > 100 µM | 30.4 µM | > 100 µM | 80.4 µM
8 | CCCCNc1nc(C#N)c(N)s1 |  | > 100 µM | > 100 µM | > 100 µM | > 100 µM | > 100 µM |  | > 100 µM | > 100 µM |  |  |  |  |  |  |  |  |  |  | 
9 | COc1cc([N+](=O)[O-])c(OC)cc1-c1nc2sc(Cl)cn2c1/C(N)=N/C(=N)N |  | 26.6 µM | > 100 µM | 33.8 µM | 45.4 µM |  | 29.5 µM |  | > 62.1 µM | 11.4 µM | 47.5 µM |  | 5.71 µM | 3.09 µM | 5.67 µM | 19.7 µM |  | 4.52 µM | 23.7 µM | 
10 | O=C(O)C(SC(=S)c1ccc(C(=S)SC(C(=O)O)c2ccccc2)cc1)c1ccccc1 (stereo not given) | > 100 µM | > 100 µM | > 100 µM |  | > 100 µM | > 100 µM | > 100 µM | > 100 µM | > 100 µM |  |  |  |  |  |  |  |  |  |  | 
11 | CCc1cc(C(=O)OC)cn1C(=N)c1ccc(Cl)cc1 | > 100 µM | > 100 µM | > 100 µM | > 100 µM | > 100 µM | > 100 µM | > 100 µM |  | > 100 µM |  |  |  |  |  |  |  |  |  |  | 
12 | CC(C)(C)c1ccc(Oc2nccc(-c3c(-c4ccc(F)cc4)ncn3C3CCNCC3)n2)cc1 |  | 9.38 µM | 7.13 µM | 7.32 µM | 7.76 µM | 8.06 µM | 7.03 µM |  | 7.8 µM | 4.1 µM | 7.6 µM |  | 4.94 µM | 2.93 µM | 3.61 µM | 4.26 µM | 4.29 µM | 3.68 µM | 4.35 µM | 
13 | CCOc1ccc2c(c1)[n+]([O-])c(-c1ccc(Cl)cc1)c(N)[n+]2[O-] |  | > 100 µM | > 100 µM | > 100 µM | > 100 µM | > 100 µM | > 100 µM | > 100 µM | > 100 µM |  |  |  |  |  |  |  |  |  |  | 
14 | COc1ccc(-c2nc(-c3nc4ccc(OC)cc4[nH]3)c3ccccn23)cc1 | 26.8 µM | 70.5 µM | 16.9 µM | > 100 µM | > 100 µM | > 100 µM | 4.41 µM |  | > 100 µM | 3.2 µM | 8.86 µM | 2.53 µM | 13.3 µM | 3.37 µM | 4.53 µM | 11.4 µM | 18.5 µM | 1.6 µM | 36.1 µM | 
15 | C=C1C(=O)O[C@H]2[C@H]1CC/C(COC(=O)NCc1ccc(Cn3c(=O)sn(CCCl)c3=O)cc1)=C\CC[C@@]1(C)O[C@@H]21 | 7 µM | 3.46 µM | 5.92 µM | 4.01 µM | 4.19 µM | 3.38 µM | 3.24 µM |  | 29.7 µM | 1.45 µM | 2.78 µM | 1.73 µM | 1.72 µM | 1.85 µM | 1.92 µM | 1.97 µM | 1.74 µM | 1.7 µM | 16.1 µM | 
16 | Cc1ccc(S(=O)(=O)N/N=C/c2c(O)ccc3ccccc23)cc1 | > 100 µM | 77.4 µM | > 100 µM | 84.3 µM | 88.2 µM | > 100 µM | > 100 µM |  | 84.6 µM |  | 59.6 µM |  |  |  |  |  |  |  |  | 
17 | Cc1ccc(Nc2n[nH]c(=S)s2)cc1C | > 100 µM | > 100 µM | > 100 µM | > 100 µM | > 100 µM | > 100 µM | > 100 µM |  | > 100 µM |  | > 100 µM |  |  |  |  |  |  |  |  | 
18 | Cc1ccc(S(=O)(=O)OC2CSS(=O)CC2OS(=O)(=O)c2ccc(C)cc2)cc1 (stereo not given) |  | 27.8 µM | 9.03 µM | 32.6 µM | 32.1 µM | 29 µM | 30.1 µM | 8.15 µM | 38.5 µM |  |  |  |  |  |  |  |  |  |  | 
19 | CC(=O)CC(=O)OC1CC(C)CCC1C(C)C (stereo not given) | 44 µM | > 100 µM | 44.2 µM | > 100 µM | > 100 µM | > 100 µM | > 100 µM |  | > 100 µM |  |  |  |  |  |  |  |  |  |  | 
20 | CCN(CC)c1c(C(=O)/C=C/c2ccc(OC)cc2)c(-c2ccccc2)nn(C)c1=O | 45.6 µM | 35.1 µM | 19.8 µM | 58 µM | 28 µM | 35.7 µM | 21.5 µM | 44.7 µM | > 100 µM |  |  |  |  |  |  |  |  |  |  | 
